Results published in US20220313701A1, “MODULATORS OF TREX1” (Constellation Pharmaceuticals, Inc., priority 2019, published 2022).

Columns and labels:
full length human TREX1 = molecular target: T1, full length human TREX1 (Homo sapiens, UniProt Q9NSU2); assay: TREX1 Biochemical Assay (fluorescence assay, degradation of dsDNA substrate); details: 150 pM TREX1, 60 nM dsDNA substrate, 25 minutes at room temperature
T1 construct: N-terminally His-Tev tagged full length human TREX1; His-Tev (His tag with TEV site) (N); made in house; host or cells: E. coli
T1 sequence (Q9NSU2 1-314): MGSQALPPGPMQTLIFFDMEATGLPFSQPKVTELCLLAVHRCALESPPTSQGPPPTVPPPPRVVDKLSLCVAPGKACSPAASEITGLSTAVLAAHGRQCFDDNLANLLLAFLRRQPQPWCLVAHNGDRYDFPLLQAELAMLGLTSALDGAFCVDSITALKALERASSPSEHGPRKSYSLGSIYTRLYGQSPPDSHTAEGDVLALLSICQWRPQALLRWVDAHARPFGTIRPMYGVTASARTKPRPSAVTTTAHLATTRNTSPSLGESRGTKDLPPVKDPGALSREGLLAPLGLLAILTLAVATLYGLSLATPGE
Experimental: Degradation of the dsDNA liberates free fluorophore to produce a fluorescent signal. Specifically, 7.5 μL of N-terminally His-Tev tagged full length human TREX1 (expressed in E. coli and purified in house) in reaction buffer (50 mM Tris (pH 7.4), 150 mM NaCl, 2 mM DTT, 0.1 mg/mL BSA, 0.01% (v/v) Tween-20 and either 100 mM MgCl2) was added to a 384-well Black ProxiPlate Plus (Perkin Elmer) which already contained compound (150 nL) at varying concentrations as a 10 point dose-response in DMSO. To this was added 7.5 μL of dsDNA substrate (Strand A: 5′ TEX615/GCT AGG CAG 3′; Strand B: 5′ CTG CCT AGC/IAbRQSp (Integrated DNA Technologies)) in reaction buffer. Final concentrations were 150 pM TREX1, 60 nM dsDNA substrate in reaction buffer with 1.0% DMSO (v/v). After 25 minutes at room temperature, reactions were quenched by the addition of 5 μL of stop buffer (same as reaction buffer plus 200 mM EDTA). Final concentrations in the quenched reaction were 112.5 pM TREX1, 45 nM DNA and 50 mM EDTA in a volume of 20 μL. After a 5-minute incubation at room temperature, plates were read in a laser sourced Envision (Perkin-Elmer), measuring fluorescence at 615 nm following excitation w/570 nm light. IC50 values were calculated by comparing the measured fluorescence at 615 nm ratio relative to control wells pre-quenched w/stop buffer (100% inhibition) and no inhibitor (0% inhibition) controls as using non-linear least square four parameter fits and either Genedata or GraphPad Prism (GraphPad Software, Inc.).

[1] = molecular target: T2, human TREX2 (residues M44-A279) (Homo sapiens, UniProt Q9BQ50); assay: TREX2 Biochemical Assay (fluorescence assay, degradation of dsDNA substrate); details: 2.5 nM TREX2, 60 nM dsDNA substrate, 25 minutes at room temperature
T2 construct: human TREX2 (residues M44-A279, expressed in E. coli); His-Tev (His tag with TEV site) (N); made in house; host or cells: E. coli
T2 sequence (Q9BQ50 44-279 isoform Q9BQ50-1): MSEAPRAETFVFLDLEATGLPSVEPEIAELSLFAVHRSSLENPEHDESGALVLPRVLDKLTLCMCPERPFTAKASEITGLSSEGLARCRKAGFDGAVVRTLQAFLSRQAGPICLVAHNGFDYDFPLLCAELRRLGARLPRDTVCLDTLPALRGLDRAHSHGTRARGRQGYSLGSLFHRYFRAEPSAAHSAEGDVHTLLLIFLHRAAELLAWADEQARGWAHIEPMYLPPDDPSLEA
Experimental: Degradation of the dsDNA liberates free fluorophore to produce a fluorescent signal. Specifically, 7.5 μL of N-terminally His-Tev tagged human TREX2 (residues M44-A279, expressed in E. coli and purified in house) in reaction buffer (50 mM Tris (pH 7.4), 150 mM NaCl, 2 mM DTT, 0.1 mg/mL BSA, 0.01% (v/v) Tween-20 and 100 mM MgCl2) was added to a 384-well Black ProxiPlate Plus (Perkin Elmer) which already contained compound (150 nL) at varying concentrations as a 10 point dose-response in DMSO. To this was added 7.5 μL of dsDNA substrate (Strand A: 5′ TEX615/GCT AGG CAG 3′; Strand B: 5′ CTG CCT AGC/IAbRQSp (IDT)) in reaction buffer. Final concentrations were 2.5 nM TREX2, 60 nM dsDNA substrate in reaction buffer with 1.0% DMSO (v/v). After 25 minutes at room temperature, reactions were quenched by the addition of 5 μL of stop buffer (same as reaction buffer plus 200 mM EDTA). Final concentrations in the quenched reaction mixture were […] TREX2, 45 nM DNA and 50 mM EDTA in a volume of 20 μL. After a 5-minute incubation at room temperature, plates were read in a laser sourced Envision (Perkin-Elmer), measuring fluorescence at 615 nm following excitation w/570 nm light. IC50 values were calculated by comparing the measured fluorescence at 615 nm ratio relative to control wells pre-quenched w/stop buffer (100% inhibition) and no inhibitor (0% inhibition) controls as using non-linear least square four parameter fits and either Genedata or GraphPad Prism (GraphPad Software, Inc.).

SMILES | IC50 (full length human TREX1) [µM] | IC50 [1] [µM]
Cc1nn(C(C)C)cc1-c1cncc(N2CCC(O)(c3ccc(F)c(F)c3)CC2)n1 [Example 48, 4-(3,4-difluorophenyl)-1-(6-(1-isopropyl-3-methyl-1H-pyrazol-4-yl)pyrazin-2-yl)piperidin-4-ol] | < 0.1 | 10 to 100
Cc1nn(C)cc1-c1cc(N2CCC(O)(c3ccc(F)c(F)c3)CC2)ccn1 [Example 49, 4-(3,4-difluorophenyl)-1-(2-(1,3-dimethyl-1H-pyrazol-4-yl)pyridin-4-yl)piperidin-4-ol] | 1 to 10 | > 100
Cn1nc(C(F)(F)F)cc1-c1cncc(N2CCC(O)(c3ccc(F)c(F)c3)CC2)n1 [Example 50, 4-(3,4-difluorophenyl)-1-(6-(1-methyl-3-(trifluoromethyl)-1H-pyrazol-5-yl)pyrazin-2-yl)piperidin-4-ol] | > 10 | > 100
Cc1nn(C)cc1-c1ccnc(N2CCC(O)(c3ccc(F)c(F)c3)CC2)n1 [Example 51, 4-(3,4-difluorophenyl)-1-(4-(1,3-dimethyl-1H-pyrazol-4-yl)pyrimidin-2-yl)piperidin-4-ol] | 0.1 to 1 | > 100
Cc1noc(C)c1-c1cncc(N2CCC(O)(c3ccc(F)c(F)c3)CC2)n1 [Example 52, 4-(3,4-difluorophenyl)-1-(6-(3,5-dimethylisoxazol-4-yl)pyrazin-2-yl)piperidin-4-ol] | 1 to 10 | > 100
Cc1cc(-c2cncc(N3CCC(O)(c4ccc(F)c(F)c4)CC3)n2)n(C)n1 [Example 53, 4-(3,4-difluorophenyl)-1-(6-(1,3-dimethyl-1H-pyrazol-5-yl)pyrazin-2-yl)piperidin-4-ol] | 1 to 10 | > 100
Cc1nn(C)cc1-c1nccc(N2CCC(O)(c3ccc(F)c(F)c3)CC2)n1 [Example 54, 4-(3,4-difluorophenyl)-1-(2-(1,3-dimethyl-1H-pyrazol-4-yl)pyrimidin-4-yl)piperidin-4-ol] | 1 to 10 | > 100
Cc1nn(C)cc1-c1ccnc(N2CCC(O)(c3ccc(F)c(F)c3)CC2)c1 [Example 55, 4-(3,4-difluorophenyl)-1-(4-(1,3-dimethyl-1H-pyrazol-4-yl)pyridin-2-yl)piperidin-4-ol] | > 10 | > 100
Cc1nn(C)cc1-c1cncc(N2CCC(O)(c3ccc(F)cc3)C(F)(F)C2)n1 (stereo not shown) [Example 56, 1-(6-(1,3-dimethyl-1H-pyrazol-4-yl)pyrazin-2-yl)-3,3-difluoro-4-(4-fluorophenyl)piperidin-4-ol] | 0.1 to 1 | > 100
Cc1nc(-c2cn(C)nc2C)cc(N2CCC(O)(c3ccc(F)c(F)c3)CC2)n1 [Example 57, 4-(3,4-difluorophenyl)-1-(6-(1,3-dimethyl-1H-pyrazol-4-yl)-2-methylpyrimidin-4-yl)piperidin-4-ol] | < 0.1 | > 100
Cc1nn(C)cc1-c1cc(N2CCC(O)(c3ccc(F)c(F)c3)CC2)ncn1 [Example 58, 4-(3,4-difluorophenyl)-1-(6-(1,3-dimethyl-1H-pyrazol-4-yl)pyrimidin-4-yl)piperidin-4-ol] | < 0.1 | 10 to 100
Cc1nn(C)cc1-c1cc(N2CCC(O)(c3ccc(F)c(F)c3)CC2)nc(-c2ccccc2)n1 [Example 59, 4-(3,4-difluorophenyl)-1-(6-(1,3-dimethyl-1H-pyrazol-4-yl)-2-phenylpyrimidin-4-yl)piperidin-4-ol] | 1 to 10 | > 100
Cn1cc(-c2cc(-c3cnn(C)c3)nc(N3CCC(O)(c4cccc(F)c4)CC3)c2)cn1 [Example 60, 1-(4,6-bis(1-methyl-1H-pyrazol-4-yl)pyridin-2-yl)-4-(3-fluorophenyl)piperidin-4-ol] | 1 to 10 | > 100
Cn1cc(-c2cc(N3CCC(O)(c4cccc(F)c4)CC3)cc(-c3cnn(C)c3)n2)cn1 [Example 61, 1-(2,6-bis(1-methyl-1H-pyrazol-4-yl)pyridin-4-yl)-4-(3-fluorophenyl)piperidin-4-ol] | 1 to 10 | > 100
Cc1nn(C)c(C)c1-c1cncc(N2CCC(O)(c3ccc(F)c(F)c3)CC2)n1 [Example 62, 4-(3,4-difluorophenyl)-1-(6-(1,3,5-trimethyl-1H-pyrazol-4-yl)pyrazin-2-yl)piperidin-4-ol] | < 0.1 | 10 to 100
CCn1cc(-c2cncc(N3CCC(O)(c4ccc(F)c(F)c4)CC3)n2)c(C)n1 [Example 63, 4-(3,4-difluorophenyl)-1-(6-(1-ethyl-3-methyl-1H-pyrazol-4-yl)pyrazin-2-yl)piperidin-4-ol] | < 0.1 | 1 to 10
O=C(NCCc1ccccc1)c1cncc(N2CCC(O)(c3ccc(F)cc3)CC2)n1 [Example 64, 6-(4-(4-fluorophenyl)-4-hydroxypiperidin-1-yl)-N-phenethylpyrazine-Z-carboxamide] | 1 to 10 | > 100
O=C(NCc1ccncc1)c1cncc(N2CCC(O)(c3ccc(F)cc3)CC2)n1 [Example 65, 6-(4-(4-fluorophenyl)-4-hydroxypiperidin-1-yl)-N-(pyridin-4-ylmethyl)pyrazine-2-carboxamide] | > 10 | > 100
O=C(NCc1ccccn1)c1cncc(N2CCC(O)(c3ccc(F)cc3)CC2)n1 [Example 66, 6-(4-(4-fluorophenyl)-4-hydroxypiperidin-1-yl)-N-(pyridin-2-ylmethyl)pyrazine-2-carboxamide] | > 10 | > 100
CN1CCN(C(=O)c2cncc(N3CCC(O)(c4ccc(F)cc4)CC3)n2)CC1 [Example 67, (6-(4-(4-fluorophenyl)-4-hydroxypiperidin-1-yl)pyrazin-2-yl)(4-methylpiperazin-1-yl)methanone] | > 10 | > 100
O=C(NCCc1ccccn1)c1cncc(N2CCC(O)(c3ccc(F)cc3)CC2)n1 [Example 68, 6-(4-(4-fluorophenyl)-4-hydroxypiperidin-1-yl)-N-(2-(pyridin-2-yl)ethyl)pyrazine-2-carboxamide] | 1 to 10 | > 100
COCCNC(=O)c1cncc(N2CCC(O)(c3ccc(F)cc3)CC2)n1 [Example 69, 6-(4-(4-fluorophenyl)-4-hydroxypiperidin-1-yl)-N-(2-methoxyethyl)pyrazine-2-carboxamide] | > 10 | > 100
CN(C)CCCNC(=O)c1cncc(N2CCC(O)(c3ccc(F)cc3)CC2)n1 [Example 70, N-(3-(dimethylamino)propyl)-6-(4-(4-fluorophenyl)-4-hydroxypiperidin-1-yl)pyrazine-2-carboxamide] | > 10 | > 100
